# Assays:
# CD274 promoter = assay: ChIP-PCR of FOXM1 binding to CD274 promoter; format: cell-based, human; conditions: H1299 and PC9; vs respective controls
# Description: To cross-link proteins to DNA, H1299 and PC9 cells were treated with 0.7% formaldehyde at 37° C. for 10 minutes. Cross-linking was quenched by adding glycine to the culture medium at a final concentration of 0.125 M for 5 minutes. The cells were sonicated using a Bioruptor Next Gen sonicator (Diagenode, Denville, NJ, USA) for 5 minutes in 30 s on/30 s off cycle to obtain ~500 bp DNA fragments. The sonicated cell lysates containing genomic DNA fragments were pre-cleared to eliminate unwanted nonspecific components. ChIP was performed using antibody against FOXM1 (#sc-271746, Santa Cruz Biotechnology) with rotation at 4° C. overnight, followed by various washing steps, reverse cross-linking, and protein digestion with proteinase K (#P2308; Sigma-Aldrich, St. Louis, MO, USA). The immunoprecipitated DNA fragments were purified using a phenol-chloroform method, and the purified DNA pellets were resuspended in TE buffer (pH 8.0) and used for PCR. Primers specifically detecting a FOXM1 binding region were designed using a Primer3 tool for chromatin immunoprecipitation-PCR (ChIP-PCR) (Table 1).
# [1] = In vivo toxicity in xenograft mice (serum biochemical analysis, H&E, TUNEL of normal tissues)
# Description: IHC staining was performed using anti-rabbit-HRP antibodies (K4003, EnVision+ HRP Labelled Polymer Anti-Rabbit, Dako, Agilent Technologies, Carpinteria, CA, USA) and 3,3′-diaminobenzidine (DAB) (K3468, DAB+ Chromogen, Dako, Agilent Technologies, Santa Clara, CA, USA) as substrates, and the sections were counterstained with hematoxylin (K8008, EnVision FLEX Hematoxylin, Dako, Agilent Technologies Singapore, Singapore). To analyze the in vivo toxicity of the tested drugs, four xenograft mice from each group were used for serum biochemical analysis (Table 2). On day 9, serum samples were collected from the mice in the control and TST-treated groups. In addition, the vital organs (liver, spleen, and kidney) were collected form mice, sectioned, and stained with H&E to monitor histopathological changes.
# FOXM1 and PD-L1 = FOXM1 and PD-L1 expression in MC38 cells (immunoblotting, confocal imaging); format: cell-based, mouse
# Description: Human colorectal cancer cell lines (HCT116, HCT8, and SW480) and human primary coronary artery smooth muscle cells (SMCs) were purchased from the American Type Culture Collection (Manassas, VA, USA), and a MC38 mouse colorectal adenocarcinoma cell line was provided by Dr. Beom-Kyu Choi (National Cancer Center, Goyang, Republic of Korea). MC38 cells were cultured in Dulbecco's modified Eagle's medium (DMEM) supplemented with 10% FBS and 1% penicillin/streptomycin. SW480 and HCT8 cells were cultured in Roswell Park Memorial Institute (RPMI) medium supplemented with 10% FBS and 1% penicillin/streptomycin. […]
# For immunoblotting analysis, protein concentrations were measured using a bicinchoninic acid kit (Cat. 23225; Thermo Fisher Scientific, Carlsbad, CA, USA). […] The appropriate secondary antibodies conjugated to horseradish peroxidase were bound to the washed membrane, and protein bands were detected using a chemiluminescence kit (Thermo Fisher Scientific, Carlsbad, CA, USA).
# To confirm the dose-dependent downregulation of PD-L1 levels by TST, which is a FOXM1 inhibitor, live cell imaging was performed on PD-L1 expression in MC38 cells. […] Fluorescence images of nuclei (λex 359 nm, λem 457 nm) and PD-L1 (λex 590 nm, λem 618 nm) were obtained using a confocal scanning laser microscope (LSM780; Carl Zeiss, Oberkochen, Germany).
substance,measurement,setting,value
thiostrepton [TST],FOXM1 binding to the CD274 promoter,CD274 promoter,dramatic decrease
same,histological changes in vital organs (H&E staining),"[1]; liver, spleen, kidney",no significant histological changes
same,A/G ratio,"[1]; serum, day 9, n = 4",1.99 ± 0.13
same,ALP,"[1]; serum, day 9, n = 4",91.50 ± 15.04 U/L
same,ALT,"[1]; serum, day 9, n = 4",31.25 ± 4.21 U/L
same,AST,"[1]; serum, day 9, n = 4",82.75 ± 8.58 U/L
same,Alb,"[1]; serum, day 9, n = 4",3.28 ± 0.08 g/dL
same,BUN,"[1]; serum, day 9, n = 4",19.70 ± 1.11 mg/dL
same,Crea,"[1]; serum, day 9, n = 4",0.00 ± 0.00 mg/dL
same,Glo,"[1]; serum, day 9, n = 4",1.65 ± 0.09 g/dL
same,Glu,"[1]; serum, day 9, n = 4",321.00 ± 58.73 mg/dL
same,T-Bill,"[1]; serum, day 9, n = 4",0.10 ± 0.00 mg/dL
same,T-chol,"[1]; serum, day 9, n = 4",107.50 ± 3.20 mg/dL
same,TG,"[1]; serum, day 9, n = 4",118.00 ± 14.88 mg/dL
same,TP,"[1]; serum, day 9, n = 4",4.93 ± 0.08 g/dL
same,levels of blood biomarkers,[1]; vs DMSO control group,not significantly changed
same,apoptotic cell death in normal tissues (TUNEL assay),[1]; vs DMSO control tissues,no effect on apoptotic cell death in normal tissues
same,level of PD-L1 in the plasma membrane,"FOXM1 and PD-L1; MC38, TST 0, 1, 5, and 10 μM, 48 hours",dose-dependently decreased
same,FOXM1 and PD-L1 expression levels,FOXM1 and PD-L1; MC38 mouse colorectal cancer cells,dose-dependently decreased

# From patent publication US20260248881A1, “PHARMACEUTICAL COMPOSITION COMPRISING FOXM1 INHIBITOR AND IMMUNE CHECKPOINT INHIBITOR FOR PREVENTING OR TREATING CANCER” (National Cancer Center, priority 2022, published 2026)
